≈ marks a conversion by molar mass, not a printed value.
Legend:
Type in all cases: functional
[1] = system: Candida parapsilosis; assay: Antifungal activity against Candida parapsilosis ATCC 22019 assessed as inhibition of fungal growth incubated for 24 hrs by CLSI based microbroth dilution method; conditions: Lodderomyces parapsilosis
[2] = system: Aspergillus fumigatus; assay: Antifungal activity against Aspergillus fumigatus assessed as inhibition of fungal growth incubated for 24 hrs by CLSI based microbroth dilution method
[3] = system: Candida albicans; assay: Antifungal activity against Candida albicans assessed as inhibition of fungal growth incubated for 24 hrs by CLSI based microbroth dilution method
[4] = system: Candida tropicalis; assay: Antifungal activity against Candida tropicalis assessed as inhibition of fungal growth incubated for 24 hrs by CLSI based microbroth dilution method
[5] = system: Candida albicans; assay: Antifungal activity against Candida albicans ATCC 90023 assessed as inhibition of fungal growth incubated for 24 hrs by CLSI based microbroth dilution method

| SMILES | MIC [1] [µM] | MIC [2] [µM] | MIC [3] [µM] | MIC [4] [µM] | MIC [5] [µM] |
| --- | --- | --- | --- | --- | --- |
| O=C1c2cccc3c(N/N=C/c4ccncc4)ccc(c23)C(=O)N1CCO | 355 (≈ 128 µg/mL) | 355 (≈ 128 µg/mL) | 355 (≈ 128 µg/mL) | 355 (≈ 128 µg/mL) | 711 (≈ 256 µg/mL) |
| CCCN1C(=O)c2cccc3c(N/N=C(\C)Cn4c([N+](=O)[O-])cnc4C)ccc(c23)C1=O | 1180 (≈ 512 µg/mL) | 1180 (≈ 512 µg/mL) | 1180 (≈ 512 µg/mL) | 1180 (≈ 512 µg/mL) | 1180 (≈ 512 µg/mL) |
| CCCCc1nc(Cl)c(/C=N/Nc2ccc3c4c(cccc24)C(=O)N(CCO)C3=O)n1CC | 548 (≈ 256 µg/mL) | 68 (≈ 31.8 µg/mL) | 274 (≈ 128 µg/mL) | 34 (≈ 15.9 µg/mL) | 137 (≈ 64.1 µg/mL) |
| O=C1c2cccc3c(N/N=C/c4cc(Cl)ccc4O)ccc(c23)C(=O)N1CCO | 626 (≈ 257 µg/mL) | 313 (≈ 128 µg/mL) | 626 (≈ 257 µg/mL) | 313 (≈ 128 µg/mL) | 313 (≈ 128 µg/mL) |
| C/C(Cn1c([N+](=O)[O-])cnc1C)=N\Nc1ccc2c3c(cccc13)C(=O)N(c1ccc(F)c(Cl)c1)C2=O | 246 (≈ 128 µg/mL) | 983 (≈ 512 µg/mL) | 491 (≈ 256 µg/mL) | 246 (≈ 128 µg/mL) | 983 (≈ 512 µg/mL) |
| C/C(Cn1c([N+](=O)[O-])cnc1C)=N\Nc1ccc2c3c(cccc13)C(=O)N(Cc1ccc(F)cc1)C2=O | 1020 (≈ 512 µg/mL) | 1020 (≈ 512 µg/mL) | 1020 (≈ 512 µg/mL) | 1020 (≈ 512 µg/mL) | 1020 (≈ 512 µg/mL) |
| O=C1c2cccc3c(N/N=C/c4ccccn4)ccc(c23)C(=O)N1CCO | 711 (≈ 256 µg/mL) | 355 (≈ 128 µg/mL) | 355 (≈ 128 µg/mL) | 711 (≈ 256 µg/mL) | 355 (≈ 128 µg/mL) |
| CCCCCn1c(CCCC)nc(Cl)c1/C=N/Nc1ccc2c3c(cccc13)C(=O)N(CCO)C2=O | 251 (≈ 128 µg/mL) | 63 (≈ 32.1 µg/mL) | 251 (≈ 128 µg/mL) | 16 (≈ 8.16 µg/mL) | 126 (≈ 64.3 µg/mL) |
| C#CCN1C(=O)c2cccc3c(N/N=C(\C)Cn4c([N+](=O)[O-])cnc4C)ccc(c23)C1=O | 1180 (≈ 510 µg/mL) | 296 (≈ 127 µg/mL) | 1180 (≈ 510 µg/mL) | 1180 (≈ 510 µg/mL) | 1180 (≈ 510 µg/mL) |
| CCCCCCN1C(=O)c2cccc3c(N/N=C(\C)Cn4c([N+](=O)[O-])cnc4C)ccc(c23)C1=O | 1070 (≈ 512 µg/mL) | 1070 (≈ 512 µg/mL) | 1070 (≈ 512 µg/mL) | 1070 (≈ 512 µg/mL) | 1070 (≈ 512 µg/mL) |

The remaining lines, values ahead:

| MIC [1] [µM] | MIC [2] [µM] | MIC [3] [µM] | MIC [4] [µM] | MIC [5] [µM] | SMILES |
| --- | --- | --- | --- | --- | --- |
| 60 (≈ 32.2 µg/mL) | 2 (≈ 1.07 µg/mL) | 120 (≈ 64.3 µg/mL) | 15 (≈ 8.04 µg/mL) | 7 (≈ 3.75 µg/mL) | CCCCc1nc(Cl)c(/C=N/Nc2ccc3c4c(cccc24)C(=O)N(CCO)C3=O)n1CC1CCCCC1 |
| 58 (≈ 31.8 µg/mL) | 117 (≈ 64.1 µg/mL) | 58 (≈ 31.8 µg/mL) | 58 (≈ 31.8 µg/mL) | 4 (≈ 2.19 µg/mL) | CCCCc1nc(Cl)c(/C=N/Nc2ccc3c4c(cccc24)C(=O)N(CCO)C3=O)n1Cc1ccc(F)cc1 |
| 22 (≈ 8.06 µg/mL) | 175 (≈ 64.1 µg/mL) | 350 (≈ 128 µg/mL) | 87 (≈ 31.9 µg/mL) | 44 (≈ 16.1 µg/mL) | O=C1c2cccc3c(N/N=C/c4cncs4)ccc(c23)C(=O)N1CCO |
| 152 (≈ 63.9 µg/mL) | 76 (≈ 31.9 µg/mL) | 9 (≈ 3.78 µg/mL) | 38 (≈ 16 µg/mL) | 38 (≈ 16 µg/mL) | O=C1c2cccc3c(N/N=C/C=C/c4ccc([N+](=O)[O-])o4)ccc(c23)C(=O)N1CCO |
| 46 (≈ 16 µg/mL) | 367 (≈ 128 µg/mL) | 183 (≈ 63.8 µg/mL) | 367 (≈ 128 µg/mL) | 92 (≈ 32 µg/mL) | O=C1c2cccc3c(N/N=C/c4ccc[nH]4)ccc(c23)C(=O)N1CCO |
| 175 (≈ 64.1 µg/mL) | 350 (≈ 128 µg/mL) | 699 (≈ 256 µg/mL) | 175 (≈ 64.1 µg/mL) | 350 (≈ 128 µg/mL) | O=C1c2cccc3c(N/N=C/c4nccs4)ccc(c23)C(=O)N1CCO |
| 64 | 127 | 16 | 255 | 8 | C[n+]1ccc(/C=N/Nc2ccc3c4c(cccc24)C(=O)N(CCO)C3=O)cc1 |
| 21 (≈ 7.67 µg/mL) | 10 (≈ 3.65 µg/mL) | 21 (≈ 7.67 µg/mL) | 5 (≈ 1.83 µg/mL) | 5 (≈ 1.83 µg/mL) | NN1C(=O)c2cccc3c(N/N=C/c4ccc([N+](=O)[O-])o4)ccc(c23)C1=O |
| 169 (≈ 61.4 µg/mL) | 338 (≈ 123 µg/mL) | 42 (≈ 15.3 µg/mL) | 84 (≈ 30.5 µg/mL) | 84 (≈ 30.5 µg/mL) | Cc1ccc(/C=N/Nc2ccc3c4c(cccc24)C(=O)N(CCO)C3=O)o1 |
| 239 (≈ 136 µg/mL) | 477 (≈ 272 µg/mL) | 477 (≈ 272 µg/mL) | 477 (≈ 272 µg/mL) | 954 (≈ 545 µg/mL) | C/C(Cn1c([N+](=O)[O-])cnc1C)=N\Nc1ccc2c3c(cccc13)C(=O)N(c1ccc(C(F)(F)F)cc1Cl)C2=O |
| 67 (≈ 32 µg/mL) | 8 (≈ 3.82 µg/mL) | 67 (≈ 32 µg/mL) | 2 (≈ 0.956 µg/mL) | 17 (≈ 8.13 µg/mL) | C#CCn1c(CCCC)nc(Cl)c1/C=N/Nc1ccc2c3c(cccc13)C(=O)N(CCO)C2=O |
| 33 (≈ 16 µg/mL) | 66 (≈ 31.9 µg/mL) | 33 (≈ 16 µg/mL) | 17 (≈ 8.23 µg/mL) | 17 (≈ 8.23 µg/mL) | CCCCc1nc(Cl)c(/C=N/Nc2ccc3c4c(cccc24)C(=O)N(CCO)C3=O)n1CCO |
| 5 (≈ 2.21 µg/mL) | 44 (≈ 19.5 µg/mL) | 87 (≈ 38.5 µg/mL) | 87 (≈ 38.5 µg/mL) | 22 (≈ 9.74 µg/mL) | O=C1c2cccc3c(N/N=C/c4cnc(-c5ccccc5)s4)ccc(c23)C(=O)N1CCO |

— ChEMBL document CHEMBL5506069, “A Unique Hybridization Route to Access Hydrazylnaphthalimidols as Novel Structural Scaffolds of Multitargeting Broad-Spectrum Antifungal Candidates” (J Med Chem, 2024)
